Data from ChEMBL document CHEMBL1151016, “Synthesis and evaluation of 3-deoxy-D-manno-2-octulosonate-8-phosphate (KDO8P) synthase inhibitors” (Bioorg Med Chem Lett, 1997).

Experiment: The compound was tested for inhibitory activity against KDO 8-P synthase by using a KDO 8-P synthase enzymatic assay

IC50 | SMILES
> 25 mM | O=C(O)C1=C[C@H](OCCP(=O)(O)O)[C@H](O)[C@H](O)C1
3.8 mM | O=C(O)C1=C[C@H](OCC(O)P(=O)(O)O)[C@H](O)[C@H](O)C1 (stereo partly drawn)
4.3 mM | O=P(O)(O)OC[C@H]1O[C@H](O)[C@H](O)[C@@H]1O
